One data set has as its system IH in a rat model. The following applies: perivascular administration; cited from earlier work.
The next data set has as its system collagen. Kind of data set: Masson's trichrome staining, collagen density in the artery. The format is in vivo, Sprague-Dawley rats. The following applies: Mode-1, 14 days. The protocol:
Four to six cross-sections cut from different locations (see detailed description above) from the balloon-injured CCA per each animal were used for Masson's trichrome staining. The color images were transformed into monochrome images at an 8-bit scale using Image J. After adjusting the threshold consistent through the analysis, integrated density of interest was measured. Data values from 6 sections were averaged for each animal, and averages from total animals in a group were used to calculate mean+SEM and statistical analysis.

The subject of a further data set is CD68. Kind of data set: Immunostaining of the inflammation marker CD68. It counts as in vivo, Sprague-Dawley rats. On the procedure:
(§1) Paraffin-embedded specimens were processed into 5-μm thick sections for immunostaining. The slides were deparaffinized and hydrated through series of xylenes and graded alcohol. Antigens were retrieved using citrate buffer for 2 hours at 80° C. in a high-pressure cooker. Endogenous peroxidase was blocked by incubation with 3% H2O2 for 10 min. Following application of a monoclonal antibody against either cleaved Caspase 3 (9661, Cell Signaling Technology, Inc., Danvers, MA) or CD68 (T-3003, BMA Biomedicls, Augst, Switzerland), ImmPRESS HRP Anti-Rabbit IgG (Peroxidase) Polymer Detection Kit (MP-7451, Vector Laboratories Inc., Burlingame, CA) was used as the secondary antibody. The staining intensity was visualized using ImmPACT DAB Peroxidase (HRP) Substrate (SK-4105, Vector Laboratories). Data values from 6 different portions were averaged for each animal, and averages from total animals in a group were used to calculate mean+SEM and statistical analysis.

The test system of data set [1] is active (cleaved) caspase-3. Kind of data set: Immunostaining of the apoptosis marker active (cleaved) caspase-3. The format is in vivo, Sprague-Dawley rats. The following applies: Mode-3 painting, 14 days. The protocol:
as §1

Take `CC(C)N(C[C@H]1O[C@@H](n2cnc3c(N)ncnc32)[C@H](O)[C@@H]1O)[C@H]1C[C@@H](CCc2nc3cc(C(C)(C)C)ccc3[nH]2)C1` [Pinometostat, pinometostat]: the IH entry in the data set with IH in a rat model is listed as “reduced IH”.

Regarding `CO[C@H]1C[C@@H]2CC[C@@H](C)[C@@](O)(O2)C(=O)C(=O)N2CCCC[C@H]2C(=O)O[C@H]([C@H](C)C[C@@H]2CC[C@@H](O)[C@H](OC)C2)CC(=O)[C@H](C)/C=C(\C)[C@@H](O)[C@@H](OC)C(=O)[C@H](C)C[C@H](C)/C=C/C=C/C=C/1C` [Rapamycin], the “fibrosis (adventitial collagen accumulation)” value in the data set with collagen was “alleviated this fibrotic severity”. Further, the “number of CD68-positive cells” value in the data set with CD68 (Mode-1 and Mode-2, 14 days) is on record as “the difference was abolished”. In addition, the “inflammation marker (CD68 staining)” value in the data set with CD68 (Mode-3 painting, 14 days) is “reduced CD68 staining in the vessel wall”. In data set [1], the “apoptosis marker (caspase-3 positive cells)” value is recorded as “lowered the overall number of caspase-3 positive cells”.
